Source: paper PMC10294659, “Cryo-EM Structures of the Klebsiella pneumoniae AcrB Multidrug Efflux Pump” (mBio, 2023)

Tests used:
[1] = biological target: T1, KpAcrB (K. pneumoniae AcrB multidrug efflux pump) (Klebsiella pneumoniae, UniProt W9B4M6); assay: microscale thermophoresis (label-free); cryo-EM structure of the complex also solved; type: binding
T1 construct: full-length, 1,048 residues (model 1-1033), N-terminal 6xHis tag, pET15b, expressed in E. coli BL21(DE3) delta-acrB; homotrimer; in DDM for MST, in MSP1E3D1 lipid nanodiscs for cryo-EM

[2] = biological target: Klebsiella pneumoniae AcrB multidrug efflux pump (Klebsiella pneumoniae) (UniProt W9B4M6); assay: cryo-EM structure; single-particle cryo-EM of 10 uM KpAcrB in lipidic nanodiscs (MSP 1E3D1, E. coli total extract lipid; 20 mM Tris-HCl pH 7.5, 100 mM NaCl); apo, and after 2 h with 500 uM erythromycin

Row | Molecule | Kd [1] [µM] | stoichiometry N [2]
1 | CC[C@H]1OC(=O)[C@H](C)[C@@H](O[C@H]2C[C@@](C)(OC)[C@@H](O)[C@H](C)O2)[C@H](C)[C@@H](O[C@@H]2O[C@H](C)C[C@H](N(C)C)[C@H]2O)[C@](C)(O)C[C@@H](C)C(=O)[C@H](C)[C@@H](O)[C@]1(C)O [erythromycin] | 14.4 ± 2.6 | –
2 | Klebsiella pneumoniae AcrB multidrug efflux pump (from UniProt W9B4M6 1-1048) (natural protein) | – | 3
